The source of these data is PubChem BioAssay AID2750 (The Scripps Research Institute Molecular Screening Center, 2010).

Each structure is given as a SMILES string. Values joined by “and” are separate entries in the source; they are usually repeats but may differ in a detail not shown here. Identical values can stand only once.

The test system of this assay is DLD-1 KLF5 promoter-luciferase reporter, luminescence. Description: KLF5 promoter reporter inhibitors, late-stage follow-up, luminescence, DLD-1 cells, powder samples (AID 2750).

Take `CCOC(=O)c1sc(NC(=O)c2ccc3ncsc3c2)nc1C`: the 50% inhibitory concentration (IC50) was 22.1 nM and 18.7 nM.

As to `CN(C(=O)COC(=O)/C=C/c1cccc([N+](=O)[O-])c1)C1CCS(=O)(=O)C1` (stereo unspecified), the IC50 was 603 nM.

For the molecule `O=C(NCCc1ccccc1F)c1ccc2c(c1)OCCO2`, the IC50 was 162 nM.

As to `CC(C)(C)c1ccc(-c2noc(CCC(=O)Nc3cccnc3)n2)cc1`, the IC50 was 71.8 nM and 57.2 nM.

Consider `COc1ccc(OCc2cccc(C(=O)Nn3cc([N+](=O)[O-])cn3)c2)cc1`, for which the IC50 is 357 nM.

In the case of `CCCc1ccc(-c2ccc(/C=C/C(=O)O)cc2)nc1`, the IC50 is 75.2 nM.

As to `O=C(NCCc1ccccc1)c1ccc2c(c1)OCCCO2`, the half-inhibitory concentration (IC50) is 217 nM.

Take `CN1CCN(c2ccc(-c3ccc4ccccc4n3)cc2)CC1`: the IC50 was 27.1 nM.

Regarding `Cc1cc(C(=O)CN2C(=O)c3ccccc3S2(=O)=O)c(C)n1CC1CCCO1` (stereo unspecified), the IC50 is 67.6 nM.

As for `CC(C)(C)c1ccc(C(=O)O/N=C(\N)c2ccccn2)cc1`, the concentration for half-maximal inhibition (IC50) was 595 nM.

As for `COc1cccc(C=NNc2ccc(C(=O)O)cc2)c1O`, the 50% inhibitory concentration (IC50) is 10.4 nM.

For the molecule `Cc1ccc2nc(NC(=O)CCCc3nc4ccccc4s3)sc2c1`, the concentration for half-maximal inhibition (IC50) was 180 nM.

With `c1ccc(-c2ccc(-c3nc(-c4ccccn4)no3)cc2)cc1`, the IC50 is 285 nM.

Take `CCCc1ccc(C(=O)O/N=C(\N)c2ccccn2)cc1`: the IC50 was 132 nM.

`CCOC(=O)c1sc(NC(=O)c2cc3c(s2)CCC(C)C3)nc1C` (stereo unspecified): the 50% inhibitory concentration (IC50) is 20.1 nM.

Regarding `COc1ccc(C(=O)Nc2ccccc2C(=O)NN=Cc2ccc(O)c(OC)c2)cc1`, the 50% inhibitory concentration (IC50) is 11.3 nM.
